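Five concentrations, 48 hours, 96-well plates. Definition used: TGI = concentration required for complete inhibition of growth.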
Tests used:
Assay in all cases: DTP human tumour cell line panel, 48 h
NCI/ADR-RES ovarian = tested on: NCI/ADR-RES ovarian
SF-295 CNS = tested on: SF-295 CNS
HCT-15 colon = tested on: HCT-15 colon
HCC-2998 colon = tested on: HCC-2998 colon
MALME-3M melanoma = tested on: MALME-3M melanoma
T-47D breast = tested on: T-47D breast
SW-620 colon = tested on: SW-620 colon
M14 melanoma = tested on: M14 melanoma
OVCAR-4 ovarian = tested on: OVCAR-4 ovarian
CCRF-CEM leukemia = tested on: CCRF-CEM leukemia
OVCAR-5 ovarian = tested on: OVCAR-5 ovarian
EKVX NSCLC = tested on: EKVX NSCLC
UACC-257 melanoma = tested on: UACC-257 melanoma
HOP-62 NSCLC = tested on: HOP-62 NSCLC
UO-31 renal = tested on: UO-31 renal
SK-MEL-28 melanoma = tested on: SK-MEL-28 melanoma
MDA-MB-435 = tested on: MDA-MB-435
NCI-H522 lung = tested on: NCI-H522 lung
A498 renal = tested on: A498 renal
KM12 colon = tested on: KM12 colon
786-0 renal = tested on: 786-0 renal
OVCAR-8 ovarian = tested on: OVCAR-8 ovarian
TK-10 renal = tested on: TK-10 renal
SN12C renal = tested on: SN12C renal
SF-268 CNS = tested on: SF-268 CNS
SNB-19 CNS = tested on: SNB-19 CNS
DU-145 prostate = tested on: DU-145 prostate
HOP-92 NSCLC = tested on: HOP-92 NSCLC
HS 578T breast = tested on: HS 578T breast
RXF 393 renal = tested on: RXF 393 renal
COLO 205 colon = tested on: COLO 205 colon
SNB-75 CNS = tested on: SNB-75 CNS
CAKI-1 renal = tested on: CAKI-1 renal
MDA-MB-231 breast = tested on: MDA-MB-231 breast
U251 CNS = tested on: U251 CNS
LOX IMVI melanoma = tested on: LOX IMVI melanoma
ACHN renal = tested on: ACHN renal
SF-539 CNS = tested on: SF-539 CNS
HCT-116 colon = tested on: HCT-116 colon
NCI-H23 lung = tested on: NCI-H23 lung
IGROV1 ovarian = tested on: IGROV1 ovarian
MCF7 breast = tested on: MCF7 breast
A549 NSCLC = tested on: A549 NSCLC
HT29 colon = tested on: HT29 colon
SK-MEL-5 melanoma = tested on: SK-MEL-5 melanoma
HL-60(TB) leukemia = tested on: HL-60(TB) leukemia
PC-3 prostate = tested on: PC-3 prostate
SK-OV-3 ovarian = tested on: SK-OV-3 ovarian
NCI-H226 lung = tested on: NCI-H226 lung
SK-MEL-2 melanoma = tested on: SK-MEL-2 melanoma
MDA-N = tested on: MDA-N
OVCAR-3 ovarian = tested on: OVCAR-3 ovarian
UACC-62 melanoma = tested on: UACC-62 melanoma
K-562 leukemia = tested on: K-562 leukemia
RPMI-8226 leukemia = tested on: RPMI-8226 leukemia
BT-549 breast = tested on: BT-549 breast
SR leukemia = tested on: SR leukemia
NCI-H460 lung = tested on: NCI-H460 lung
MOLT-4 leukemia = tested on: MOLT-4 leukemia

Measured: TGI

CC(=O)NC(C)c1ccc(N=NN2CCCC2)cc1 (centres undefined)
> 100 µM: NCI/ADR-RES ovarian | SF-295 CNS | HCT-15 colon | HCC-2998 colon | MALME-3M melanoma | T-47D breast | SW-620 colon | M14 melanoma | OVCAR-4 ovarian | CCRF-CEM leukemia | OVCAR-5 ovarian | EKVX NSCLC | UACC-257 melanoma | HOP-62 NSCLC | UO-31 renal | SK-MEL-28 melanoma | MDA-MB-435 | NCI-H522 lung | A498 renal | KM12 colon | 786-0 renal | OVCAR-8 ovarian | TK-10 renal | SN12C renal | SF-268 CNS | SNB-19 CNS | DU-145 prostate | HOP-92 NSCLC | HS 578T breast | RXF 393 renal | COLO 205 colon | SNB-75 CNS | CAKI-1 renal | MDA-MB-231 breast | U251 CNS | LOX IMVI melanoma | ACHN renal | SF-539 CNS | HCT-116 colon | NCI-H23 lung | IGROV1 ovarian | MCF7 breast | A549 NSCLC | HT29 colon | SK-MEL-5 melanoma | HL-60(TB) leukemia | PC-3 prostate | SK-OV-3 ovarian | NCI-H226 lung | SK-MEL-2 melanoma | MDA-N | OVCAR-3 ovarian

Cc1ccc(C(=O)C2=CN=C3C(=O)N(c4ccccc4)N(C)C3(C)C2=N)cc1 (centres undefined)
> 100 µM: NCI/ADR-RES ovarian | SF-295 CNS | UACC-62 melanoma | HCT-15 colon | HCC-2998 colon | MALME-3M melanoma | SW-620 colon | M14 melanoma | OVCAR-4 ovarian | K-562 leukemia | CCRF-CEM leukemia | OVCAR-5 ovarian | EKVX NSCLC | UACC-257 melanoma | UO-31 renal | RPMI-8226 leukemia | MDA-MB-435 | NCI-H522 lung | A498 renal | KM12 colon | 786-0 renal | BT-549 breast | OVCAR-8 ovarian | TK-10 renal | SN12C renal | SR leukemia | DU-145 prostate | NCI-H460 lung | HOP-92 NSCLC | RXF 393 renal | COLO 205 colon | SNB-75 CNS | CAKI-1 renal | MDA-MB-231 breast | U251 CNS | LOX IMVI melanoma | ACHN renal | SF-539 CNS | HCT-116 colon | NCI-H23 lung | IGROV1 ovarian | MCF7 breast | A549 NSCLC | SK-MEL-5 melanoma | HL-60(TB) leukemia | MOLT-4 leukemia | PC-3 prostate | SK-OV-3 ovarian | NCI-H226 lung | SK-MEL-2 melanoma | MDA-N | OVCAR-3 ovarian

Source: PubChem BioAssay (NCI)
